# From ChEMBL document CHEMBL1201862, “PubChem BioAssay data set” (2004)
# The source made the active and inactive calls.
# How the values were obtained:
# [1] = biological target: Cytochrome P450 2D6 (Homo sapiens, UniProt P10635);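 also: CYP2D6 member of a cytochrome P450 panel assay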
# [2] = biological target: Cytochrome P450 3A4 (Homo sapiens, UniProt P08684);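 also: CYP3A4 tested as one member of a cytochrome P450 panel screen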
# [3] = biological target: Cytochrome P450 2C19 (Homo sapiens, UniProt P33261); assay: Cytochrome panel assay with activity outcomes. Panel member name: p450-cyp2c19 Compounds with AC50 equal or less than 10 uM are considered active; assay type: functional
# Sequence of Cytochrome P450 2C19 (P33261 whole entry): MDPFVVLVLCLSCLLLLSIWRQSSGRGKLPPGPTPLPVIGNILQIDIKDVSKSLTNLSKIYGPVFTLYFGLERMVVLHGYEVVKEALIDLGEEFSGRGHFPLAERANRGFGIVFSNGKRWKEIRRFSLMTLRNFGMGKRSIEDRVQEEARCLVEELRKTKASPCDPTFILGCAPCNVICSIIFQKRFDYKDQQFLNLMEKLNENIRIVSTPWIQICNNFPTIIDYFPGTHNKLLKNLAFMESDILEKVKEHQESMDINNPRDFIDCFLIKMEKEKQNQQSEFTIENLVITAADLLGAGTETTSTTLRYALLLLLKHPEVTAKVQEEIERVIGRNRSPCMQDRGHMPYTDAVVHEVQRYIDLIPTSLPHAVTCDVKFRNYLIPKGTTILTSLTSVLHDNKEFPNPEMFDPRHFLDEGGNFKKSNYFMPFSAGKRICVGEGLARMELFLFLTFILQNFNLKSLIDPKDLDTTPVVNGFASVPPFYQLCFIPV
# [4] = inhibitors of firefly luciferase expression or activity, dose response, H4 neuroglioma cells, luminescence (AID 1990); assay type: functional, cell-based
# [5] = inhibitors of SNCA 5'UTR-driven reporter translation, confirmation, H4 neuroglioma cells, luminescence (AID 1988); assay type: functional, cell-based
# [6] = biological target: T1, Heat shock factor protein 1 (Mus musculus, UniProt P38532); assay: inhibition of MG132-induced HSE-luciferase signal, confirmation, cell-based, NIH3T3, luminescence, dose retest (AID 2382); assay type: functional;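 also: NIH3T3 fibroblasts with HSF1-driven luciferase reporter stressed by proteasome inhibitor MG132; luminescence from HSF1-driven luciferase expression after 8 hours of MG132 stress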
# T1 sequence (P38532 whole entry): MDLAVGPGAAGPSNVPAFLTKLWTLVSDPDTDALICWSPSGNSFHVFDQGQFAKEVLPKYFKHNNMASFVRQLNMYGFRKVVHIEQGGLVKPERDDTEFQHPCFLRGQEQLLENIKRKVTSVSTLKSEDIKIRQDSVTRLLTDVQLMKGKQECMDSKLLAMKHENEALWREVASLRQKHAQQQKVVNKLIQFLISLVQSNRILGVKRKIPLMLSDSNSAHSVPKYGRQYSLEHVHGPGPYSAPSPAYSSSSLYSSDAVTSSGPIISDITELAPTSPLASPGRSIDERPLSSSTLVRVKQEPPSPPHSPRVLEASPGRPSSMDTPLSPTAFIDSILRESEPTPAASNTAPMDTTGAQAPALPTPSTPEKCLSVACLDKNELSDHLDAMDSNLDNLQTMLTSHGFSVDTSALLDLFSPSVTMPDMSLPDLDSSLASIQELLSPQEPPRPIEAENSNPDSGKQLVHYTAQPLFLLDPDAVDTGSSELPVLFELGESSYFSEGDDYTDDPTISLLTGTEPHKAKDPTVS
# [7] = Luminescence Cell-Based Dose Response HTS to Identify Inhibitors of 5'UTR Stem-Loop Driven Prion Protein mRNA Translation in H4 Neuroglioblastoma Cells. [Related pubchem assays: 1827 (Project Summary), 1813 (Primary HTS)]; assay type: functional
# [8] = biological target: T2, Cytochrome P450 1A2 (Homo sapiens, UniProt P05177);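 also: PubChem cytochrome P450 panel assay, CYP1A2 panel member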
# T2 sequence (P05177 whole entry): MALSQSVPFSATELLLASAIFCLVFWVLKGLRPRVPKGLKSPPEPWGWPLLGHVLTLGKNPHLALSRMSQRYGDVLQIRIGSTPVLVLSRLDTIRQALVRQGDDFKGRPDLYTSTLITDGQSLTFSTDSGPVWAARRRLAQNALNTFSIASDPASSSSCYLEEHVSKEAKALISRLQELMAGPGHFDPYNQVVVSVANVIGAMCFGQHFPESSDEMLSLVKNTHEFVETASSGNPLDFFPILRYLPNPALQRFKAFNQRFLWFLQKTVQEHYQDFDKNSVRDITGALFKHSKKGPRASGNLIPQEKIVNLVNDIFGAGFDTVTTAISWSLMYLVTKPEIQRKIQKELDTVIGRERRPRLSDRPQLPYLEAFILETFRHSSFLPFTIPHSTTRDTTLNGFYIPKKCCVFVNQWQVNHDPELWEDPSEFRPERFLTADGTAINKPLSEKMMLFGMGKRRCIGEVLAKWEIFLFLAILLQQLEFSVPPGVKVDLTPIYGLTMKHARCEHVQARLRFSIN
# [9] = biological target: Cytochrome P450 2C9 (Homo sapiens, UniProt P11712)
# Sequence of Cytochrome P450 2C9 (P11712 whole entry): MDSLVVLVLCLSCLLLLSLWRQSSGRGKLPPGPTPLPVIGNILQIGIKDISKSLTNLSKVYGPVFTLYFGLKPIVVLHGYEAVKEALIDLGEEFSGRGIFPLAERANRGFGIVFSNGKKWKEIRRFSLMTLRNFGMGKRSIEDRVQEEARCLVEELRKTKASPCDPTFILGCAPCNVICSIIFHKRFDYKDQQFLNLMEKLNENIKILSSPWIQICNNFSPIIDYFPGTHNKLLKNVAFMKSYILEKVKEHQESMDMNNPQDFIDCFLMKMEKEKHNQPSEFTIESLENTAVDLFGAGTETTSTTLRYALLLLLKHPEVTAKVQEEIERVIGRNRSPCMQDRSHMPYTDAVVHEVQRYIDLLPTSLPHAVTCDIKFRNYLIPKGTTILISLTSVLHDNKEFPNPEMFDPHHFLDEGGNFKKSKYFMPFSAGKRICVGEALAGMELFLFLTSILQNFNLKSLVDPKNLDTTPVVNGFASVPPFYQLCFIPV
# Sequence of Cytochrome P450 3A4 (P08684 whole entry): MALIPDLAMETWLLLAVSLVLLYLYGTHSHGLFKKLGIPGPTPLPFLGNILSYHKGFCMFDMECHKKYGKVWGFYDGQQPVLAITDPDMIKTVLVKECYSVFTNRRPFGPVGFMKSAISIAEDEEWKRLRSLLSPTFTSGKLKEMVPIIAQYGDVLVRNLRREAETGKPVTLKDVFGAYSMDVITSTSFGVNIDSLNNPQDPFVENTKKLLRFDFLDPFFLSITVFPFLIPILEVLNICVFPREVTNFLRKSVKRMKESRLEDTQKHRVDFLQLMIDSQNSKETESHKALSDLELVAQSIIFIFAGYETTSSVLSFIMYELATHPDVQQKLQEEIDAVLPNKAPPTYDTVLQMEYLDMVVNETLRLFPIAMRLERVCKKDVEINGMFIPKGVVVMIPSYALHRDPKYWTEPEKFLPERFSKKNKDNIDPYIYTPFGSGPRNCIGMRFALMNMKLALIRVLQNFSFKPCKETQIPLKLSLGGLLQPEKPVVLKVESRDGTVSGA
# Sequence of Cytochrome P450 2D6 (P10635 whole entry): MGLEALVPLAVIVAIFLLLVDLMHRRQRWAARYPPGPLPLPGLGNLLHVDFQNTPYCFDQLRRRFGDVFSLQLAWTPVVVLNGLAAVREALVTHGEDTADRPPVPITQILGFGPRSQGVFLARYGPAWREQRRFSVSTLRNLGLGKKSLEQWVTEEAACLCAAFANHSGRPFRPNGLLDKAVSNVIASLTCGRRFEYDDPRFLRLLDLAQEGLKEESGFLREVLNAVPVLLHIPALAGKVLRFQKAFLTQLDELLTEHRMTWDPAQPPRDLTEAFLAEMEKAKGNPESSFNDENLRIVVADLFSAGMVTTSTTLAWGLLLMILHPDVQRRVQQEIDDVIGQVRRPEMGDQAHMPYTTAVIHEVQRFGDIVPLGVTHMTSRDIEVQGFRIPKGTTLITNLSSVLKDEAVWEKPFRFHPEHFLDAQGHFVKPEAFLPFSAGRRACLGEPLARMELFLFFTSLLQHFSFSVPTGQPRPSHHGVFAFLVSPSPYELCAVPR
compound,measurement,setting,value
Cc1noc(C)c1C(=O)N1CCC2(CC1)CCN(c1ccncc1)CC2,AC50,[1],12.6 µM (inconclusive)
same,AC50,[2],3.98 µM (inconclusive)
COc1ccc(-c2cc(C(=O)Nc3cc(OC)c(OC)c(OC)c3)no2)cc1OC,AC50,[3]; read-out: AC50,39.8 µM (inconclusive)
same,AC50,[2],10 µM (inconclusive)
COc1ccc(-c2[nH]ncc2CN2CCC(O)(c3ccc(Cl)cc3)CC2)cc1,EC50,[4],18.2 µM (active)
same,EC50,[5],9.96 µM (active)
CO[C@H]1[C@H](O[C@H]2O[C@@H](C)[C@@H](O[C@@H]3C[C@](C)(O)[C@H](OC(=O)CC(C)C)[C@H](C)O3)[C@@H](N(C)C)[C@@H]2O)[C@@H](CC=O)C[C@@H](C)[C@@H](O)/C=C\C=C/C[C@@H](C)OC(=O)C[C@H]1OC(C)=O,AC50,[2],12.6 µM (inconclusive)
O=c1c(-c2ccccc2)nc2cnc(N3CCOCC3)nc2n1C[C@H]1CCCO1,AC50,[2],39.8 µM (inconclusive)
COc1ccc(NC(=O)CSc2nc(C)cs2)cc1,EC50,[6],> 195 µM (not active)
COCC(=O)N1CCC2(CCCN(c3ccccc3)C2)CC1,AC50,[2],7.94 µM (inconclusive)
O=C(N/N=C/c1cc([N+](=O)[O-])ccc1Cl)c1cnccn1,EC50,[7],9.8 µM (active)
same,EC50,[4],> 120 µM (not active)
same,EC50,[5],> 120 µM (not active)
Cc1ccc(NC(=O)NCC(c2cccnc2)N2CCOCC2)cc1 (centres undefined),EC50,[6],> 195 µM (not active)
COc1ccc(NC(=O)C2CCN(C(=O)Nc3ccc(C)cc3)CC2)cc1OC,EC50,[7],> 120 µM (not active)
same,EC50,[4],> 120 µM (not active)
same,EC50,[5],> 120 µM (not active)
CCn1c(C(=O)NC(C)c2ccc3c(c2)OCCO3)cc2sccc21 (centres undefined),EC50,[7],15.8 µM (active)
same,EC50,[4],14.2 µM (active)
same,EC50,[5],22.5 µM (active)
COc1ccc(-c2nc(C#N)c(N3CCC(C(N)=O)CC3)o2)cc1OC,AC50,[8],12.6 µM (inconclusive)
same,AC50,[3]; read-out: AC50,22.4 µM (inconclusive)
same,AC50,[2],39.8 µM (inconclusive)
C1=C(c2cccc3ccccc23)N2CCN=C2S1,EC50,[7],> 120 µM (not active)
same,EC50,[4],> 120 µM (not active)
same,EC50,[5],> 120 µM (not active)
O=C1OC(N2CCN(C/C=C/c3ccccc3)CC2)c2ccccc21 (centres undefined),EC50,[6],> 195 µM (not active)
O=C(OCC(=O)N1CCN(C(=O)c2ccco2)CC1)c1sc2cc(F)ccc2c1Cl,EC50,[6],> 195 µM (not active)
Cn1c(SCC(=O)NCc2ccccc2)nc2ccccc21,EC50,[6],> 195 µM (not active)
COC(=O)[C@@]1(Cc2ccc(F)cc2)[C@H]2c3cc(C(=O)N4CCCC4)n(Cc4c(CO)ncc(C)c4O)c3C[C@H]2CN1C(=O)c1ccccc1,AC50,[8],20 µM (inconclusive)
same,AC50,[3]; read-out: AC50,39.8 µM (inconclusive)
CSc1nc(C)cc(SC(C(C)=O)C(=O)Nc2ccccc2)n1 (centres undefined),AC50,[8],15.8 µM (inconclusive)
same,AC50,[2],14.1 µM (inconclusive)
same,AC50,[9],1.58 µM (inconclusive)
CC1(C)N(O)C(c2ccc(C(=O)O)cc2)=[N+]([O-])C1(C)C,AC50,[8],31.6 µM (inconclusive)
CCC(=O)Nc1ccc(NC(=O)Cc2ccccc2)cn1,EC50,[6],> 195 µM (not active)
Cc1ccccc1Cn1c(Cc2ccccc2)nc2ccccc21,AC50,[8],17.8 µM (inconclusive)
same,AC50,[1],31.6 µM (inconclusive)
same,AC50,[2],31.6 µM (inconclusive)
O=C(c1ccc(F)cc1)N1CCCC(N2CCN(Cc3ccc4c(c3)OCO4)CC2)C1 (centres undefined),EC50,[6],> 195 µM (not active)
O=C(N/N=C/c1cccnc1)c1ccc2c(c1)OCCO2,EC50,[6],> 195 µM (not active)
CNCC/C=C\c1cccnc1,AC50,[1],15.8 µM (inconclusive)
same,AC50,[3]; read-out: AC50,20 µM (inconclusive)
same,AC50,[9],39.8 µM (inconclusive)
C[C@]1(c2ccccc2)OC(C(=O)O)=CC1=O,AC50,[8],39.8 µM (inconclusive)
C[C@H](CN(C)C)C(C#N)(c1ccccc1)c1ccccc1,AC50,[1],3.16 µM (inconclusive)
same,AC50,[2],3.98 µM (inconclusive)
CC(C)(C)OC(=O)COc1cc(O)c2c(=O)cc(-c3ccccc3)oc2c1,EC50,[6],> 195 µM (not active)
Cc1ccc(NC(=O)CCC(=O)NNC(=O)c2ccco2)cc1C,AC50,[3]; read-out: AC50,17.8 µM (inconclusive)
same,AC50,[9],12.6 µM (inconclusive)
COc1ccc(-c2nc(CNS(=O)(=O)c3ccc(OC)c(OC)c3)cs2)cc1,EC50,[6],> 195 µM (not active)
CC(C)CC(C(=O)OCC(=O)Nc1ncc(Cl)cc1Cl)N1C(=O)c2ccccc2C1=O (centres undefined),AC50,[8],11.2 µM (inconclusive)
same,AC50,[2],31.6 µM (inconclusive)
COC(=O)c1cccc(NC(=O)CCCOc2ccccc2)c1,AC50,[2],12.6 µM (inconclusive)
Fc1ccc(C2CC(c3ccco3)=NN2c2ccccc2)cc1 (centres undefined),AC50,[2],0.0251 µM (inconclusive)
COc1ccc(NC(=O)NCc2cccn2C)c(OC)c1,AC50,[1],0.501 µM (inconclusive)
same,AC50,[2],22.4 µM (inconclusive)
CC(C)Cc1nc2n[nH]c(N)c2c2c1COC(C)(C)C2,EC50,[7],> 120 µM (not active)
same,EC50,[4],38.2 µM (active)
same,EC50,[5],21.4 µM (active)
CN(C)c1ncc2nc(-c3cccc(C#N)c3)c(=O)n(C[C@H]3CCCO3)c2n1,AC50,[8],3.16 µM (inconclusive)
same,AC50,[1],2.51 µM (inconclusive)
Nc1nc(O)c(Br)c(Oc2ccc(F)cc2)n1,EC50,[6],35.4 µM (active)
CN(C)c1ncc2nc(-c3cccs3)c(=O)n(CCc3ccccc3)c2n1,AC50,[8],5.01 µM (inconclusive)
O=S(=O)(c1ccc2c(c1)OCCO2)N1CCC(c2nc(O)c3nnn(Cc4ccccc4F)c3n2)CC1,EC50,[7],> 120 µM (not active)
same,EC50,[4],> 120 µM (not active)
same,EC50,[5],> 120 µM (not active)
NS(=O)(=O)c1ccc(CCNC(=O)C2CCCN2C(=O)OCc2ccccc2)cc1 (centres undefined),AC50,[3],inconclusive
same,AC50,[9],15.8 µM (inconclusive)
CCOC(=O)c1ccc(NC(=O)NS(=O)(=O)c2ccc(C)cc2)cc1,EC50,[6],> 195 µM (not active)
N#Cc1nc(-c2ccco2)oc1N1CCN(Cc2ccccc2)CC1,EC50,[6],> 195 µM (not active)
O=C(c1nc2nc(-c3ccc(Cl)cc3)cc(C(F)(F)F)n2n1)N1CCOCC1,EC50,[7],54.3 µM (active)
same,EC50,[4],14 µM (active)
same,EC50,[5],15.9 µM (active)
CN(CCC#N)C(=O)c1ccc(CNS(=O)(=O)c2ccc(F)cc2)cc1,AC50,[8],2 µM (inconclusive)
same,AC50,[2],0.112 µM (inconclusive)
same,AC50,[9],10 µM (inconclusive)
COc1ccc(C2SCC(=O)Nc3c2c(C)nn3C2CCOC(C)(C)C2)cc1 (centres undefined),AC50,[3]; read-out: AC50,39.8 µM (inconclusive)
same,AC50,[2],28.2 µM (inconclusive)
same,AC50,[9],25.1 µM (inconclusive)
COc1ccc(-n2nc(C(=O)NCC(=O)Nc3ccccn3)c3ccccc3c2=O)cc1,AC50,[3]; read-out: AC50,3.16 µM (inconclusive)
same,AC50,[9],1.41 µM (inconclusive)
COC(=O)c1ccc(/C=N\NC(=O)c2ccc(C)cc2Cl)cc1,AC50,[8],10 µM (inconclusive)
O=c1c(-c2cccc(Cl)c2)nc2cncnc2n1Cc1ccccc1Cl,AC50,[1],15.8 µM (inconclusive)
same,AC50,[2],12.6 µM (inconclusive)
COc1cccc(COC(=O)c2ccc3c(c2)NC(=O)C(C)S3)c1OC (centres undefined),EC50,[6],> 195 µM (not active)
COc1cccc(-c2cc(C(F)(F)F)nc(-n3cc(Cl)cn3)n2)c1,EC50,[7],> 120 µM (not active)
same,EC50,[4],> 120 µM (not active)
same,EC50,[5],> 120 µM (not active)
